Laboratory results reported in ChEMBL document CHEMBL1149733, “Antitumor agents, 130, Novel 4 beta-arylamino derivatives of 3',4'-didemethoxy-3',4'-dioxo-4-deoxypodophyllotoxin as potent inhibitors of human DNA topoisomerase II” (1992).

What was measured:
KB = experiment: Cytotoxicity against human KB cells assessed as reduction in cell number after 3 days; type: functional; conditions: 72 h, read-out: ID50 (the source's name)
[1] = target: DNA topoisomerase 2-alpha (Homo sapiens) (UniProt P11388); experiment: Inhibition of human DNA topoisomerase 2
[2] = target: DNA topoisomerase 2-alpha (Homo sapiens) (UniProt P11388); experiment: Inhibition of strand rejoining activity of human DNA topoisomerase 2 assessed as protein-DNA complex formation at 20 uM by cell-based assay; parameters: scale not given: the % may be the effect or the level left
[3] = target: DNA topoisomerase 2-alpha (Homo sapiens) (UniProt P11388); experiment: Inhibition of strand rejoining activity of human DNA topoisomerase 2 assessed as protein-DNA complex formation at 10 uM by cell-based assay; parameters: scale not given: the % may be the effect or the level left

Chain of DNA topoisomerase 2-alpha (Homo sapiens) (P11388 whole entry): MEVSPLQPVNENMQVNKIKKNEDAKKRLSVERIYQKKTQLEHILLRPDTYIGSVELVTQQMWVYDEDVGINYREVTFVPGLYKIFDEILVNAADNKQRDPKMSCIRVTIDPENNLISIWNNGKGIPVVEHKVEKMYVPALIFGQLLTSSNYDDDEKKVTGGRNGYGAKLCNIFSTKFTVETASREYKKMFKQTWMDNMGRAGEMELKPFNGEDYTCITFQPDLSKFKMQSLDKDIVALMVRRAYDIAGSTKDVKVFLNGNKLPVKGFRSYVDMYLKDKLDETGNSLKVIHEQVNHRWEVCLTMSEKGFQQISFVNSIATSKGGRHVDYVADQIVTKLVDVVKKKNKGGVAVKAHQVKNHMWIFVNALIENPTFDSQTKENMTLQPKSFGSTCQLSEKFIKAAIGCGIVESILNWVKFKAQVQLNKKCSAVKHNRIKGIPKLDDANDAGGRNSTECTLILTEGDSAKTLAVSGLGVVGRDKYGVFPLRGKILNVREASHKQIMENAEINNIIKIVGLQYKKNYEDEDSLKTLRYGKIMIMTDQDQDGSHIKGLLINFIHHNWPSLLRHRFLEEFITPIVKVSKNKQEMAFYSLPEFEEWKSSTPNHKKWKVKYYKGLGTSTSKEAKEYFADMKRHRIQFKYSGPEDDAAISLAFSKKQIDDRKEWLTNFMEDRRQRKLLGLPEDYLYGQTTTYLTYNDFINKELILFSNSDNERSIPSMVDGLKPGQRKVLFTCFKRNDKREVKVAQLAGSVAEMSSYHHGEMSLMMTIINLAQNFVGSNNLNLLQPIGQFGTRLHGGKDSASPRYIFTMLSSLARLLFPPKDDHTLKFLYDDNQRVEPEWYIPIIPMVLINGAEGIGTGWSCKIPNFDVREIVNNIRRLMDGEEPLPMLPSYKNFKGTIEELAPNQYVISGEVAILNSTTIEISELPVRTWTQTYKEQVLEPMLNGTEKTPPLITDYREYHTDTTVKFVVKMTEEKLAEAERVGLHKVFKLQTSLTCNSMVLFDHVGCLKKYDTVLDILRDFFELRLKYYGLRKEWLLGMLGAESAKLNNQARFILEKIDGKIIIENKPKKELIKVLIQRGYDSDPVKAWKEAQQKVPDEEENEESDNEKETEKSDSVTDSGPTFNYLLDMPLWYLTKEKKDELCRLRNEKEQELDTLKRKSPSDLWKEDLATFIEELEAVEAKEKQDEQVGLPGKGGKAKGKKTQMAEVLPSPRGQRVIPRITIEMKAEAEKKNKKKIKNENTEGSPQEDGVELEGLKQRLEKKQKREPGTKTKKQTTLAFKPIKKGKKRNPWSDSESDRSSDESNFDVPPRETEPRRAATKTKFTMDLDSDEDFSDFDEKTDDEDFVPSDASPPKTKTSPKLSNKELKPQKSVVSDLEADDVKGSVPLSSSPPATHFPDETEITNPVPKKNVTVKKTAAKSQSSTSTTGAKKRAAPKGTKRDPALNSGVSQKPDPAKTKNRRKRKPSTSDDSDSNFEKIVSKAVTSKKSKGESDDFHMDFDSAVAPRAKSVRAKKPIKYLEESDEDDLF

SMILES | IC50 (KB) [µM] | ID50 [1] [µM] | Activity [2] [%] | Activity [3] [%]
COc1cc([C@@H]2c3cc4c(cc3[C@@H](Nc3ccc([N+](=O)[O-])cc3)[C@H]3COC(=O)[C@H]23)OCO4)cc(O)c1O | 1.3 | 10 | 200 | –
COc1cc([C@@H]2c3cc4c(cc3[C@@H](Nc3cccc(F)c3)[C@H]3COC(=O)[C@H]23)OCO4)cc(OC)c1O | – | 50 | – | 158
COC(=O)c1cccc(N[C@@H]2c3cc4c(cc3[C@@H](C3=CC(=O)C(=O)C(OC)=C3)[C@H]3C(=O)OC[C@@H]32)OCO4)c1 | 1.2 | 100 | 67 | –
CCOC(=O)c1ccccc1N[C@@H]1c2cc3c(cc2[C@@H](C2=CC(=O)C(=O)C(OC)=C2)[C@H]2C(=O)OC[C@@H]21)OCO3 | 7 | 100 | 4 | –
COc1cc([C@@H]2c3cc4c(cc3[C@@H](Nc3ccc(C(C)=O)cc3)[C@H]3COC(=O)[C@H]23)OCO4)cc(O)c1O | 1 | 25 | 147 | –
COC1=CC([C@@H]2c3cc4c(cc3[C@@H](Nc3ccc([N+](=O)[O-])cc3)[C@H]3COC(=O)[C@@H]32)OCO4)=CC(=O)C1=O | 1.3 | 10 | 128 | –
COC1=CC([C@@H]2c3cc4c(cc3[C@@H](Nc3ccc(F)cc3)[C@H]3COC(=O)[C@@H]32)OCO4)=CC(=O)C1=O | 1.3 | 25 | 92 | –
COC1=CC([C@@H]2c3cc4c(cc3[C@@H](Nc3cccc(Br)c3)[C@H]3COC(=O)[C@@H]32)OCO4)=CC(=O)C1=O | 6.1 | 50 | 15 | –
COC(=O)c1ccc(N[C@@H]2c3cc4c(cc3[C@@H](C3=CC(=O)C(=O)C(OC)=C3)[C@H]3C(=O)OC[C@@H]32)OCO4)cc1O | 1.9 | 100 | 47 | –
COc1cc([C@@H]2c3cc4c(cc3[C@@H](O)[C@H]3COC(=O)[C@H]23)OCO4)cc(O)c1O | – | 100 | 50 | –
COC1=CC([C@@H]2c3cc4c(cc3[C@@H](Oc3ccc(F)cc3)[C@H]3COC(=O)[C@@H]32)OCO4)=CC(=O)C1=O | 0.9 | 100 | 30 | –
COC1=CC([C@@H]2c3cc4c(cc3[C@@H](Nc3ccc(C(F)(F)F)cc3)[C@H]3COC(=O)[C@@H]32)OCO4)=CC(=O)C1=O | 6.5 | 25 | 51 | –
COc1cc([C@@H]2c3cc4c(cc3[C@@H](Nc3cccc([N+](=O)[O-])c3)[C@H]3COC(=O)[C@H]23)OCO4)cc(O)c1O | 2 | 50 | 75 | –
CCOC(=O)c1ccc(N[C@@H]2c3cc4c(cc3[C@@H](C3=CC(=O)C(=O)C(OC)=C3)[C@H]3C(=O)OC[C@@H]32)OCO4)cc1 | 1.4 | 25 | 110 | –
COc1cc([C@@H]2c3cc4c(cc3[C@@H](Nc3ccccc3F)[C@H]3COC(=O)[C@H]23)OCO4)cc(OC)c1O | – | – | – | 121
COC1=CC([C@@H]2c3cc4c(cc3[C@@H](Nc3cccc(F)c3)[C@H]3COC(=O)[C@@H]32)OCO4)=CC(=O)C1=O | 1.6 | 100 | 37 | –
COc1cc([C@@H]2c3cc4c(cc3[C@@H](Nc3ccc(Cl)cc3)[C@H]3COC(=O)[C@H]23)OCO4)cc(OC)c1O | – | 50 | – | 99
COc1cc([C@@H]2c3cc4c(cc3[C@@H](Nc3cc(F)cc(F)c3)[C@H]3COC(=O)[C@H]23)OCO4)cc(OC)c1O | – | 50 | – | 115
COc1cc([C@@H]2c3cc4c(cc3[C@@H](O)[C@H]3COC(=O)[C@H]23)OCO4)cc(OC)c1O | – | > 100 | – | 0
COC1=CC([C@@H]2c3cc4c(cc3[C@@H](Nc3cc([N+](=O)[O-])cc([N+](=O)[O-])c3)[C@H]3COC(=O)[C@@H]32)OCO4)=CC(=O)C1=O | 1.8 | 50 | 32 | –
COC1=CC([C@@H]2c3cc4c(cc3[C@@H](O)[C@H]3COC(=O)[C@@H]32)OCO4)=CC(=O)C1=O | 2.8 | < 5 | 41 | –

SMILES | IC50 (KB) [µM] | ID50 [1] [µM] | Activity [2] [%] | Activity [3] [%]
COc1cc([C@@H]2c3cc4c(cc3[C@@H](Nc3cccc(Br)c3)[C@H]3COC(=O)[C@H]23)OCO4)cc(OC)c1O | – | – | – | 62
COC1=CC([C@@H]2c3cc4c(cc3[C@@H](Nc3ccc(C#N)cc3)[C@H]3COC(=O)[C@@H]32)OCO4)=CC(=O)C1=O | > 2 | 50 | 18 | –
COc1cc([C@@H]2c3cc4c(cc3[C@H](O)[C@H]3COC(=O)[C@H]23)OCO4)cc(OC)c1O | – | > 100 | – | 1.1
COc1cc([C@@H]2c3cc4c(cc3[C@@H](Nc3ccc(CC#N)cc3)[C@H]3COC(=O)[C@H]23)OCO4)cc(O)c1O | 1.2 | 25 | 109 | –
COc1cc([C@@H]2c3cc4c(cc3[C@H](O)[C@H]3COC(=O)[C@H]23)OCO4)cc(O)c1O | – | 50 | 8 | –
COC1=CC([C@@H]2c3cc4c(cc3[C@@H](Nc3cccc([N+](=O)[O-])c3)[C@H]3COC(=O)[C@@H]32)OCO4)=CC(=O)C1=O | > 4 | 50 | 33 | –
COC1=CC([C@@H]2c3cc4c(cc3[C@@H](Nc3ccccc3F)[C@H]3COC(=O)[C@@H]32)OCO4)=CC(=O)C1=O | 1.2 | 100 | 29 | –
COc1cc([C@@H]2c3cc4c(cc3[C@@H](Nc3ccc(C#N)cc3)[C@H]3COC(=O)[C@H]23)OCO4)cc(O)c1O | 1.8 | 25 | 146 | –
COC1=CC([C@@H]2c3cc4c(cc3[C@@H](Nc3ccc(CC#N)cc3)[C@H]3COC(=O)[C@@H]32)OCO4)=CC(=O)C1=O | 2 | 25 | 41 | –
COc1cc([C@@H]2c3cc4c(cc3[C@@H](Nc3ccccc3)[C@H]3COC(=O)[C@H]23)OCO4)cc(O)c1O | 1.8 | 25 | 128 | –
COC1=CC([C@@H]2c3cc4c(cc3[C@@H](Nc3cc(F)cc(F)c3)[C@H]3COC(=O)[C@@H]32)OCO4)=CC(=O)C1=O | 2 | 50 | 57 | –
COC(=O)c1cccc(N[C@@H]2c3cc4c(cc3[C@@H](c3cc(O)c(O)c(OC)c3)[C@H]3C(=O)OC[C@@H]32)OCO4)c1 | 2.3 | 25 | 94 | –
COc1cc([C@@H]2c3cc4c(cc3[C@@H](Nc3ccc(Cl)cc3)[C@H]3COC(=O)[C@H]23)OCO4)cc(O)c1O | 2 | > 50 | 77 | –
COC1=CC([C@@H]2c3cc4c(cc3[C@@H](Nc3ccc(Cl)cc3)[C@H]3COC(=O)[C@@H]32)OCO4)=CC(=O)C1=O | > 4 | 25 | 27 | –
COc1cc([C@@H]2c3cc4c(cc3[C@@H](Nc3ccc(F)cc3)[C@H]3COC(=O)[C@H]23)OCO4)cc(O)c1O | 1.5 | 10 | 117 | –
COC1=CC([C@@H]2c3cc4c(cc3[C@@H](Nc3cc(C(F)(F)F)cc(C(F)(F)F)c3)[C@H]3COC(=O)[C@@H]32)OCO4)=CC(=O)C1=O | 5.5 | > 100 | 4 | –
COC1=CC([C@@H]2c3cc4c(cc3[C@@H](Nc3ccccc3)[C@H]3COC(=O)[C@@H]32)OCO4)=CC(=O)C1=O | > 2 | 25 | 32 | –
COC1=CC([C@@H]2c3cc4c(cc3[C@H](O)[C@H]3COC(=O)[C@@H]32)OCO4)=CC(=O)C1=O | 1.9 | 10 | 4 | –
COC1=CC([C@@H]2c3cc4c(cc3[C@@H](Nc3cncc5ccccc35)[C@H]3COC(=O)[C@@H]32)OCO4)=CC(=O)C1=O | 1.5 | 100 | 95 | –
COC1=CC([C@@H]2c3cc4c(cc3C(=O)[C@H]3COC(=O)[C@@H]32)OCO4)=CC(=O)C1=O | > 4 | 5 | 56 | –
COC1=CC([C@@H]2c3cc4c(cc3[C@@H](Nc3ccc(C(C)=O)cc3)[C@H]3COC(=O)[C@@H]32)OCO4)=CC(=O)C1=O | 1.5 | 50 | 69 | –
